Legend:
[1] = test system: T-Rex 293 cell line SC cells lacking increased expression of progesterone receptor isoform B protein; test: Cellular growth inhibition assay, T-Rex 293 SC cells not exposed to doxycycline (no increased progesterone receptor isoform B expression), CellTiter-Glo; format: cell-based; conditions: T-Rex 293 SC cells without doxycycline (no increased PR isoform B), 72 hours
Method: (§1) The SC cells were seeded on poly-D-lysine coated, black clear-bottom 384-well plates at 2500/well, in 25 μL Phenol Red Free Dulbecco's Modified Eagle Medium (DMEM) supplemented with 10% w/w charcoal-dextran treated fetal bovine serum (FBS) and 1% w/w pen-strep, with or without 10 ng/mL doxycycline. Pen-Strep is a commercially available mixture of penicillin G and streptomycin, which is used in mammalian cell culture media to prevent bacterial contamination. Phenol Red Free Dulbecco's Modified Eagle Medium (DMEM) supplemented with 10% w/w charcoal-dextran treated fetal bovine serum (FBS) and 1% w/w pen-strep, with or without 10 ng/mL doxycycline is herein referred to as Treatment Medium. Following seeding of cells in the plates, the plates were spun at 300×g for 30 seconds, then equilibrated to room temperature for 30 minutes, and then deposited in a humidified tissue culture incubator maintained at 37° C. with 5% CO2.
(§2) At 24 hours after seeding of the cells, dilutions of test compound were prepared in DMSO and dissolved in Treatment Medium, to achieve a final DMSO concentration of 0.5% w/w, thereby providing the Test Compound Solution. A 25 μL aliquot of the Test Compound Solution was added to cells in the well plates. An equal volume of a solution containing DMSO and Treatment Medium was used as a negative control. Following treatment of cells with Test Compound Solution or said equal volume of a solution containing DMSO and Treatment Medium, the plates were spun at 300×g for 30 seconds, and then left in an incubator for 72 hours.
(§3) At the end of the treatment duration, cell viability was quantified with CellTiter-Glo 2.0 reagent (Promega Cat #G9243). For this purpose, plates were equilibrated to room temperature for 30 minutes, and then 25 μL of CellTiter-Glo 2.0 reagent was added to cells in the plate wells. Plates were then agitated on a shaker for two minutes at 500 rpm and subsequently incubated at room temperature for 10 minutes. Following incubation, the plates were spun at 3000×g for 30 seconds, then sealed with an optical adhesive cover, and luminescence readings were measured with an EnVision Plate Reader (Perkin Elmer).
(§4) Data was normalized using zero luminescence for baseline. A four-parameter non-linear regression curve fit was applied to dose-response data in GraphPad Prism data analysis software to determine the half-maximal growth inhibitory concentration (GI50) for each test compound.

[2] = test system: T-Rex 293 cell line SC cells having increased expression of progesterone receptor isoform B protein; test: Cellular growth inhibition assay, T-Rex 293 SC cells exposed to doxycycline (increased progesterone receptor isoform B expression), CellTiter-Glo; format: cell-based; conditions: T-Rex 293 SC cells with 10 ng/mL doxycycline (increased PR isoform B), 72 hours
Method: as §1, §2, §3, §4

VCaP cells = test: Cellular growth inhibition assay for VCaP cells, CellTiter-Glo; format: cell-based, human; conditions: 72 hours
Method in brief: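 GI50 values come from four-parameter curve fits of luminescence data normalized to a zero baseline. Compound, in medium with 0.5% DMSO, was added one day after plating and left for 72 h before CellTiter-Glo 2.0 addition.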

T47D cells = test: Cellular Growth Inhibition Assay for T47D Cells (CellTiter-Glo); format: cell-based, human; conditions: 72 hours
Method in brief: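 GI50 values derive from four-parameter regression of CellTiter-Glo 2.0 luminescence, using zero luminescence as baseline. Human breast cancer T47D cells (3000/well; DMEM, 10% FBS, 0.2 units/mL insulin) were exposed for 72 h to compound dilutions at 0.5% DMSO, with dosing starting 24 h after seeding.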

[3] = test system: T-Rex 293 cell line SC3 cells lacking increased expression of androgen receptor protein; test: Cellular growth inhibition, T-Rex 293 SC3 cells without doxycycline (no increased androgen receptor expression), CellTiter-Glo; format: cell-based; conditions: T-Rex 293 SC3 cells not exposed to doxycycline (no increased androgen receptor expression), 72 hours
Method in brief: (§5)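 Growth inhibition is measured in an inducible AR-expressing T-Rex 293 clone, SC3, cultured with or without 10 ng/mL doxycycline in hormone-depleted medium. Test compounds are applied for 72 hours. GI50 values derive from CellTiter-Glo 2.0 signal fitted by four-parameter regression.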

[4] = test system: T-Rex 293 cell line SC3 cells having increased expression of androgen receptor protein due to exposure to doxycycline; test: Cellular growth inhibition, T-Rex 293 SC3 cells with doxycycline (increased androgen receptor expression), CellTiter-Glo; format: cell-based; conditions: T-Rex 293 SC3 cells with 10 ng/mL doxycycline (increased androgen receptor expression), 72 hours, CellTiter-Glo 2.0
Method in brief: as §5

Row | Compound | GI50 (VCaP cells; Homo sapiens) [nM] | GI50 (T47D cells; Homo sapiens) [nM] | GI50 (VCaP cells) [nM] | GI50 (T47D cells) [nM] | GI50 [1] [nM] | GI50 [2] [nM] | GI50 [3] [nM] | GI50 [4] [nM]
1 | CCS(=O)(=O)Nc1ccc(Oc2cccc(N3CCC(CC4CCN(c5ncc(C(=O)N[C@H]6C(C)(C)[C@H](Oc7ccc(C#N)c(Cl)c7)C6(C)C)cn5)CC4)CC3)c2)c(-c2cn(C)c(=O)c3[nH]ccc23)c1 [Compound I-36] | < 500 | < 500 |  |  | > 3000 | < 500 | > 3000 | < 500
2 | CCS(=O)(=O)Nc1ccc(Oc2cccc(OC3CC4(CCN(c5ncc(C(=O)N[C@H]6C(C)(C)[C@H](Oc7ccc(C#N)c(Cl)c7)C6(C)C)cn5)CC4)C3)c2)c(-c2cn(C)c(=O)c3[nH]ccc23)c1 [Compound I-44] | < 500 | < 500 |  |  | > 3000 | < 500 | > 3000 | < 500
3 | CCS(=O)(=O)Nc1ccc(Oc2cccc(N3CC(OC4CCN(c5ncc(C(=O)N[C@H]6C(C)(C)[C@H](Oc7ccc(C#N)c(Cl)c7)C6(C)C)cn5)CC4)C3)c2F)c(-c2cn(C)c(=O)c3[nH]ccc23)c1 [Compound I-175] |  |  | < 500 | < 500 | > 3000 | < 500 | < 500 | < 500
4 | CN(CCc1ccc(Oc2ccc(C(C)(C)O)cc2-c2cn(C)c(=O)c3[nH]ccc23)cc1)c1ncc(C(=O)N[C@H]2C(C)(C)[C@H](Oc3ccc(C#N)c(Cl)c3)C2(C)C)cn1 [Compound I-198] | < 500 | < 500 |  |  | < 500 | < 500 | < 500 | < 500
5 | CCS(=O)(=O)c1ccc(Oc2cccc(CCCOC3CC4(C3)CN(c3ncc(C(=O)N[C@H]5C(C)(C)[C@H](Oc6ccc(C#N)c(Cl)c6)C5(C)C)cn3)C4)c2F)c(-c2cn(C)c(=O)c3[nH]ccc23)c1 [Compound I-205] | < 500 | < 500 |  |  | < 500 | < 500 | < 500 | < 500
6 | Cn1cc(-c2cc(C(C)(C)O)ccc2Oc2ccc(CC3CC4(CCN(c5ncc(C(=O)N[C@H]6C(C)(C)[C@H](Oc7ccc(C#N)c(Cl)c7)C6(C)C)cn5)CC4)C3)cc2)c2cc[nH]c2c1=O [Compound I-279] | < 500 |  |  |  | > 3000 | < 500 | > 3000 | < 500
7 | Cn1cc(-c2cc(C(C)(C)O)ccc2Oc2ccc(C3CN(C4CCN(c5ncc(C(=O)N[C@H]6C(C)(C)[C@H](Oc7ccc(C#N)c(Cl)c7)C6(C)C)cn5)CC4)C3)cc2)c2cc[nH]c2c1=O [Compound I-304] |  |  | < 500 | < 500 | 500 to 1500 | < 500 | < 500 | < 500
8 | Cn1cc(-c2cc(C(C)(C)O)ccc2Oc2ccc(N3CC(CC4CN(c5cnc(C(=O)N[C@H]6C(C)(C)[C@H](Oc7ccc(C#N)c(Cl)c7)C6(C)C)cn5)C4)C3)cc2)c2cc[nH]c2c1=O [Compound I-317] | < 500 | < 500 |  |  | 500 to 1500 | < 500 | < 500 | < 500

The next lines start with results.

Row | GI50 (VCaP cells; Homo sapiens) [nM] | GI50 (T47D cells; Homo sapiens) [nM] | GI50 (VCaP cells) [nM] | GI50 (T47D cells) [nM] | Compound | GI50 [1] [nM] | GI50 [2] [nM] | GI50 [3] [nM] | GI50 [4] [nM]
9 | < 500 | < 500 |  |  | CCS(=O)(=O)Nc1ccc(Oc2cccc(OCCCC3CCN(c4ncc(C(=O)N[C@H]5C(C)(C)[C@H](Oc6ccc(C#N)c(Cl)c6)C5(C)C)cn4)CC3)c2)c(-c2cn(C)c(=O)c3[nH]ccc23)c1 [Compound I-27] | > 3000 | < 500 | 500 to 1500 | < 500
10 | < 500 | < 500 |  |  | CN(CCOc1ccc(Oc2ccc(C(C)(C)O)cc2-c2cn(C)c(=O)c3[nH]ccc23)cc1)c1ncc(C(=O)N[C@H]2C(C)(C)[C@H](Oc3ccc(C#N)c(Cl)c3)C2(C)C)cn1 [Compound I-199] | < 500 | < 500 | < 500 | < 500
11 | < 500 | 500 to 1500 |  |  | CN(CCCOc1ccc(Oc2ccc(C(C)(C)O)cc2-c2cn(C)c(=O)c3[nH]ccc23)cc1)c1ncc(C(=O)N[C@H]2C(C)(C)[C@H](Oc3ccc(C#N)c(Cl)c3)C2(C)C)cn1 [Compound I-200] | < 500 | < 500 | 500 to 1500 | < 500
12 | < 500 | < 500 |  |  | CCS(=O)(=O)c1ccc(Oc2cccc(CCCCN3CC4(C3)CN(c3ncc(C(=O)N[C@H]5C(C)(C)[C@H](Oc6ccc(C#N)c(Cl)c6)C5(C)C)cn3)C4)c2F)c(-c2cn(C)c(=O)c3[nH]ccc23)c1 [Compound I-206] | < 500 | < 500 | < 500 | < 500
13 |  |  | < 500 |  | CCS(=O)(=O)c1ccc(Oc2cccc(OCCN3CCN(c4ncc(C(=O)N[C@H]5C(C)(C)[C@H](Oc6ccc(C#N)c(Cl)c6)C5(C)C)cn4)CC3)c2F)c(-c2cn(C)c(=O)c3[nH]ccc23)c1 [Compound I-207] | < 500 | < 500 | < 500 | < 500
14 |  |  | < 500 | < 500 | CCS(=O)(=O)c1ccc(Oc2ccc(OCC3CCN(c4ncc(C(=O)N[C@H]5C(C)(C)[C@H](Oc6ccc(C#N)c(Cl)c6)C5(C)C)cn4)CC3)cc2)c(-c2cn(C)c(=O)c3[nH]ccc23)c1 [Compound I-213] | < 500 | < 500 | < 500 | < 500
15 |  |  | < 500 | < 500 | Cn1cc(-c2cc(C(C)(C)O)ccc2Oc2ccc(N3CC(C4CCN(c5ncc(C(=O)N[C@H]6C(C)(C)[C@H](Oc7ccc(C#N)c(Cl)c7)C6(C)C)cn5)CC4)C3)cc2)c2cc[nH]c2c1=O [Compound I-299] | 500 to 1500 | < 500 | > 3000 | < 500
16 |  |  | < 500 | < 500 | Cn1cc(-c2cc(C(C)(C)O)ccc2Oc2ccc(N3CC(OC4CN(c5ncc(C(=O)N[C@H]6C(C)(C)[C@H](Oc7ccc(C#N)c(Cl)c7)C6(C)C)cn5)C4)C3)cc2)c2cc[nH]c2c1=O [Compound I-303] | 500 to 1500 | < 500 | < 500 | < 500
17 |  |  | 500 to 1500 | < 500 | Cn1cc(-c2cc(C(C)(C)O)ccc2Oc2ccc(N3CC(CC4CN(c5ccc(C(=O)N[C@H]6C(C)(C)[C@H](Oc7ccc(C#N)c(Cl)c7)C6(C)C)nc5)C4)C3)cc2)c2cc[nH]c2c1=O [Compound I-322] | 1500 to 3000 | < 500 | 1500 to 3000 | < 500

From patent US20250388605A1, “HETEROBIFUNCTIONAL COMPOUNDS AND METHODS OF TREATING DISEASE” (Halda Therapeutics OpCo, Inc., priority 2022, published 2025)
